The target in series [1] is T1, aldose reductase from human placenta (Homo sapiens, UniProt P15121).
T1 construct: Partially purified aldose reductase from human placenta; from tissue; host or cells: human placenta
The series can be described thus: Aldose reductase inhibition (in vitro study). In kind it is biochemical. The text has this:
1. Aldose reductase inhibition (in vitro study)
Partially purified aldose reductase from human placenta was used for the test of aldose reductase inhibitory effect according to the method of S. Hayman et al. described in Journal of Biological Chemistry, 240, 877 (1965) or the method of J. H. Kinoshita et al. described in Metabolism, 28, Supplement 1, 462 (1979).

In series [2] the test system is sorbitol accumulation in sciatic nerves of streptozocin diabetic rats. The series can be described thus: Inhibition of sorbitol accumulation in the tissue of experimentally induced diabetic rat. The series is classed as in vivo, rat (Spraque-Dawley). As to conditions: 30 mg/kg orally twice a day for 2 days; sciatic nerve; untreated control group = 100. As to the method:
Spraque-Dawley rats (male, 5-7-week-old, 5 animals per group) were fasted for 18 hours, and received injection of 70 mg/kg of streptozocin (Cal Biochem Co.) into the caudal vein under anesthesia with ether, so that diabetic rats were obtained. From immediately after the injection of streptozocin these rats were given orally the test compound of 50 mg/kg or 30 mg/kg in the form of 5% gum arabic suspension twice a day (at 10 a.m. and 5 p.m.) for 2 days. During this period the rats were allowed to take CE-2 diet (Clea Japan, Inc.) and water ad libitum. In the morning on the 3rd day (9 a.m.) the rats were killed (decapitation and venesection), and immediately the sciatic nerves were isolated, from which sorbitol was extracted according to the method of M. J. Peterson et al. described in Metabolism, 28, 456 (1979) and the sorbitol level was determined by the enzymatic method of P.S. Clements et al. in Science, 166, 1007 (1969).

The subject of series [3] is washed rat platelets. As to the kind of experiment: Inhibitory action on platelet aggregation (washed rat platelets). In kind it is cell-based, rat (Spraque-Dawley). The conditions noted are these: for inhibition at 300 µM: 3 × 10^-4 M; for inhibition at 100 µM: 10^-4 M. The method, then:
3. Inhibitory action on platelet aggregation
Effect of 3,4-dihydro-2,8-diisopropyl-3-thioxo-2H-1,4-benzoxazine-4-acetic acid on platelet aggregation was examined using washed rat platelets.
Platelet rich plasma (PRP) was prepared by centrifuging the blood at 150 xg for 15 min at room temperature. To prepare washed platelets, the PRP was centrifuged at 1500 xg for 10 min and the precipitated platelets were resuspended in Tyrode's solution. The number of platelets used was 7×10^5 cells/mm^3. Platelet aggregation was measured by the turbidmetric method using an aggregometer (Nikko Bioscience, Model PAR-4M, Tokyo). The test compound dissolved in 10 μl of water was added to 250 μl of washed platelet suspension and incubated at 37° C. for 3 min before 10 μl of aggregating agents ([…] of collagen, Nikko Bioscience or 10 μM of ADP, Shigma, St. Louis, Mo., at the final concentration) was added.

The nature of series [4]: Acute toxicity in mice (oral). On the set-up: species or system mouse (ICR). As to conditions: in vivo, mouse, mortality during 14 days. The text has this: (§1) Acute toxicity of 3,4-dihydro-2,8-diisopropyl-3-thioxo-2H-1,4-benzoxazine-4-acetic acid was examined in mice and rats.
(§2) The various doses of the test compound suspended in 5% gum arabic solution were orally administered to male ICR mice (4 weeks old) and male Wistar rats (5 weeks old), and then mortality was observed during 14 days. Each group consisted of 5 animals.

Series [5] is described as follows: Acute toxicity in rats (oral). More on the design: species or system rat (Wistar). The conditions noted are these: in vivo, rat, mortality during 14 days.
Description: as §1, §2

Where [6] appears, read: Rattus norvegicus, Platelet, inducer ADP, Mean ± SD (N = 3), read-out: percent inhibition of aggregation.
Where [7] appears, read: Rattus norvegicus, Platelet, inducer collagen, Mean ± SD (N = 3), read-out: percent inhibition of aggregation.

Read-outs that look alike come from different tables or passages of the source.

The record followed here is US4771050A, “Thiolactam-n-acetic acid derivatives” (Takeda Chemical Industries, Ltd., priority 1986, dated 1988).

By inhibition is commonly meant the drop in the measured response relative to a control, in per cent. The term LD50 denotes the dose expected to kill half of the subjects tested. Read a low LD50 as greater toxicity. For the compound `CC(C)c1cccc2c1OC(C(C)C)C(=S)N2CC(=O)O` (stereo not shown) [Example 8, 3,4-dihydro-2,8-diisopropyl-3-thioxo-2H-1,4-benzoxazine-4-acetic acid], the inhibition at 1 µM in series [1] (10^-6 M) is 50.2%. The compound further yielded an inhibition at 0.1 µM in series [1] (10^-7 M) of 9.1%. The compound also returned a sorbitol accumulation in series [2] of 30%. The “inhibitory action compared with indomethacin (in words)” value in series [3] (ADP-induced aggregation) is recorded as “more potent than that of indomethacin”. Further, the inhibition at 300 µM in series [3] (setting [6]) came out at 42 ± 7.1%; in series [3] (setting [7]), 24.1 ± 3.4%. Also, the results for the inhibition at 100 µM in series [3] (setting [6]) and in series [3] (setting [7]) were 90 ± 6% and 31.8 ± 0.9%, respectively. Also, in series [3] (Rattus norvegicus, Platelet, inducer collagen, 3 × 10^-5 M, Mean ± SD (N = 3), read-out: percent inhibition of aggregation), the inhibition at 30 µM stood at 74.5 ± 5.5%. Besides, the inhibition at 60 µM in series [3] (Rattus norvegicus, Platelet, inducer collagen, 6 × 10^-5 M, Mean ± SD (N = 3), read-out: percent inhibition of aggregation) was found to be 46.5 ± 1.3%. Further, in series [3] (induced by either collagen or ADP), the “inhibition of aggregation of washed platelets (in words)” value is reported as “inhibited aggregation of washed platelets induced by either collagen or ADP in a dose related manner”. Further, the LD50 at 336 h was 1880 mg/kg in series [4] and 2830 mg/kg in series [5].
